Source: patent US10457707B2, “Substituted urea depsipeptide analogs as activators of the CLPP endopeptidase” (priority 2015, dated 2019)
*1 amine or outer side, *2 acyl side, *3 side chain or, on linkers, in order; H or OH if unused. Where a SMILES comes first, the peptide text is derived from it. Bridges are numbered along the chain shown (N, C = ends). [ ]: non-standard residue; d: D form. The star is where a group is joined. Phe(3,5-F2) = N[C@@H](Cc1cc(F)cc(F)c1)C(=O)O; NH(4-OCF3-phenyl) = FC(F)(F)Oc1ccc(N*)cc1; Morpholine(3S-CO) = O=C(O)[C@@H]1COCCN1; Pro(4S-Me) = C[C@@H]1CN[C@H](C(=O)O)C1; NH(4-Cl-2-F-phenyl) = Fc1cc(Cl)ccc1N*; Pro(4R-Me) = C[C@H]1CN[C@H](C(=O)O)C1; NH(3,4-Me2-phenyl) = Cc1ccc(N*)cc1C; NMeaThr = CN[C@H](C(=O)O)[C@H](C)O; Hyp = O=C(O)[C@@H]1C[C@@H](O)CN1; NH(4-Et-phenyl) = CCc1ccc(N*)cc1; NMeT = CN[C@H](C(=O)O)[C@@H](C)O; Heptenoyl(2E) = CCCC/C=C/C(=O)*; NH(4-Me-phenyl) = Cc1ccc(N*)cc1; aThr = C[C@H](O)[C@H](N)C(=O)O; Pip = O=C(O)[C@@H]1CCCCN1; X6 = Cc1cc(C)cc(N*)c1; CO = O=C([*:1])[*:2]

Assays:
Sa-ClpP [1] = target: T1, Sa-ClpP (Staphylococcus aureus, UniProt Q2G036); test: Casein-BODIPY assay, second described ClpP activation method (EnzCheck Protease Assay, 384 well); assay type: biochemical, S. aureus; settings: values marked †: second described ClpP activation assay
T1 construct: made in house; host or cells: E. coli BL21(DE3)
T1 sequence (Q2G036 1-195): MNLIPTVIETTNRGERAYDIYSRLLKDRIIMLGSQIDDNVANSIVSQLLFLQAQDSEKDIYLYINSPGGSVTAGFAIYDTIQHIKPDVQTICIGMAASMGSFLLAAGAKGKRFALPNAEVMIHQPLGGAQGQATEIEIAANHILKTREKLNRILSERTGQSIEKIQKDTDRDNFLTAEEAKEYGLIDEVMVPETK
Procedure: Alternatively, the assay was carried out using EnzCheck Protease Assay (Molecular Probes, Catalog # E6638). The assay was performed in black 384 well, flat bottom, low volume plates (Greiner Bio-One, Monroe, N.C., catalog #784076). 10 μL of Tris*HCl buffer, pH 8.0 with 0.01% Triton X-100 was pipetted into each well using a Well-Mate (Thermo Scientific, Waltham, Mass.). 0.4 μL test compounds or controls (2% DMSO v/v) were added to each well using a Biomek FX liquid handling robot (Beckman Coulter, Indianapolis Ind.). After addition of test compounds and controls, 10 μL of master mix containing 2 μM Sa-ClpP and 2 μM substrate (Bodipy-FL labeled casein) in Tris*HCl buffer, pH 8.0 with 0.01% (v/v) Triton X-100, was pipetted into each well. All assays were performed in triplicate, under linear velocity conditions. Increase in fluorescent signal following activation of Sa-ClpP by test compounds and controls was measured over time period of 30 mins using filters with excitation at 485±15 nm and emission at 520±25 nm on a PHERAstar FS Multilabel reader (BMG, Cary, N.C.). […] Data analysis was done by measuring rate of casein degradation over time (slopes). Computed degradation rates (slopes) were normalized to positive (ADEP4) or negative (DMSO) controls. Using nonlinear regression curve fitting EC50 values and % activation were determined using the equation “log [agonist] vs. Response-variable slope (four parameters)-symmetrical” in the program Prism 6 (GraphPad Software, La Jolla, Calif. USA, www.graphpad.com).

Sa-ClpP [2] = target: T1, Sa-ClpP; test: Sa-ClpP casein-BODIPY ClpP activation assay, method variant not marked in Table 5; assay type: biochemical, S. aureus
Method in brief: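 EC50 for activation derived by dose-response fitting of casein digestion rates, run in triplicate. Conditions: 37° C, pH 8 buffer with 200 mM KCl and 1 mM TCEP, 10 μM Sa-ClpP, 25 μg/ml BODIPY FL casein, compound at 0-1000 μM; signal at 485/528 nm followed 45 min.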

[3] = values without ** or † mark, assay variant not stated, read-out: ClpP Activation EC50

Compound	EC50 (Sa-ClpP [2]; [3]) [nM]	other results
CCc1ccc(NC(=O)N[C@@H](Cc2cc(F)cc(F)c2)C(=O)N[C@@H]2C(=O)N3CCC[C@H]3C(=O)N(C)[C@@H]([C@@H](C)O)C(=O)N[C@@H](C)C(=O)N3C[C@@H](C)C[C@H]3C(=O)O[C@H]2C)cc1 [Compound 37, (S)-3-(3,5-difluorophenyl)-2-(3-(4-ethylphenyl)ureido)-N-((2S,6S,9S,11aS,17S,18S,20aS)-9-((R)-1-hydroxyethyl)-2,6,10,18-tetramethyl-5,8,11,16,20-pentaoxohexadecahydro-1H,5H,16H-dipyrrolo[2,1-c:2′,1′-l][1]oxa[4,7,10,13]tetraazacyclohexadecin-17-yl)propanamide] ({NH(4-Et-phenyl)-CO}-[Phe(3,5-F2)][aThr]P[NMeT]A[Pro(4S-Me)]; ester 2-C)		EC50 (Sa-ClpP [1]): 350 ± 10 nM
Cc1ccc(NC(=O)N[C@@H](Cc2cc(F)cc(F)c2)C(=O)N[C@@H]2C(=O)N3CCC[C@H]3C(=O)N(C)[C@@H]([C@H](C)O)C(=O)N[C@@H](C)C(=O)N3C[C@H](C)C[C@H]3C(=O)O[C@H]2C)cc1 [Compound 208, (S)-3-(3,5-difluorophenyl)-N-((2R,6S,9S,11aS,17S,18S,20aS)-9-((S)-1-hydroxyethyl)-2,6,10,18-tetramethyl-5,8,11,16,20-pentaoxohexadecahydro-1H,5H,16H-dipyrrolo[2,1-c:2′,1′-l][1]oxa[4,7,10,13]tetraazacyclohexadecin-17-yl)-2-(3-(p-tolyl)ureido)propanamide] ({NH(4-Me-phenyl)-CO}-[Phe(3,5-F2)][aThr]P[NMeaThr]A[Pro(4R-Me)]; ester 2-C)	480 ± 30	
Cc1ccc(NC(=O)N[C@@H](Cc2cc(F)cc(F)c2)C(=O)N[C@@H]2C(=O)N3C[C@H](O)C[C@H]3C(=O)N3CCOC[C@H]3C(=O)N[C@@H](C)C(=O)N3C[C@H](C)C[C@H]3C(=O)O[C@H]2C)cc1C [Compound 215, (S)-3-(3,5-difluorophenyl)-2-(3-(3,4-dimethylphenyl)ureido)-N-((6aS,8R,12S,13S,15aS,17R,21S,23aS)-8-hydroxy-13,17,21-trimethyl-6,11,15,20,23-pentaoxooctadecahydro-6H,11H,15H-[1,4]oxazino[3,4-i]dipyrrolo[2,1-c:2′,1′-l][1]oxa[4,7,10,13]tetraazacyclohexadecin-12-yl)propanamide] ({NH(3,4-Me2-phenyl)-CO}-[Phe(3,5-F2)][aThr][Hyp][Morpholine(3S-CO)]A[Pro(4R-Me)]; ester 2-C)	500 ± 10	
C[C@@H]1C[C@H]2C(=O)OC[C@H](NC(=O)[C@H](Cc3ccccc3)NC(=O)Nc3ccc4c(c3)OCO4)C(=O)N3CCC[C@H]3C(=O)N3CCCC[C@H]3C(=O)N[C@@H](C)C(=O)N2C1 [Compound 194, (S)-2-(3-(benzo[d][1,3]dioxol-5-yl)ureido)-N-((2R,6S,8aS,14aS,20S,23aS)-2,6-dimethyl-5,8,14,19,23-pentaoxooctadecahydro-1H,5H,14H,19H-pyrido[2,1-i]dipyrrolo[2,1-c:2′,1′-l][1]oxa[4,7,10,13]tetraazacyclohexadecin-20-yl)-3-phenylpropanamide]	1200 ± 600	
Cc1ccc(NC(=O)N[C@@H](Cc2cc(F)cc(F)c2)C(=O)N[C@H]2COC(=O)[C@@H]3C[C@@H](C)CN3C(=O)[C@H](C)NC(=O)[C@@H]3CCCCN3C(=O)[C@@H]3CCCN3C2=O)cc1C [Compound 207, (S)-3-(3,5-difluorophenyl)-N-((2R,6S,8aS,14aS,20S,23aS)-2,6-dimethyl-5,8,14,19,23-pentaoxooctadecahydro-1H,5H,14H,19H-pyrido[2,1-i]dipyrrolo[2,1-c:2′,1′-l][1]oxa[4,7,10,13]tetraazacyclohexadecin-20-yl)-2-(3-(3,4-dimethylphenyl)ureido)propanamide]	8300 ± 1900	
C[C@@H]1C[C@H]2C(=O)O[C@@H](C)[C@H](NC(=O)[C@H](Cc3cc(F)cc(F)c3)NC(=O)Nc3ccc(Cl)cc3F)C(=O)N3C[C@H](O)C[C@H]3C(=O)N3CCCC[C@H]3C(=O)N[C@@H](C)C(=O)N2C1 [Compound 329, (S)-2-(3-(4-chloro-2-fluorophenyl)ureido)-3-(3,5-difluorophenyl)-N-((2R,6S,8aS,14aS,16R,20S,21S,23aS)-16-hydroxy-2,6,21-trimethyl-5,8,14,19,23-pentaoxooctadecahydro-1H,5H,14H,19H-pyrido[2,1-i]dipyrrolo[2,1-c:2′,1′-l][1]oxa[4,7,10,13]tetraazacyclo-hexadecin-20-yl)propanamide] ({NH(4-Cl-2-F-phenyl)-CO}-[Phe(3,5-F2)][aThr][Hyp][Pip]A[Pro(4R-Me)]; ester 2-C)		EC50 (Sa-ClpP [2]): 400 ± 20 nM
CCc1ccc(NC(=O)N[C@@H](Cc2cc(F)cc(F)c2)C(=O)N[C@@H]2C(=O)N3CCC[C@H]3C(=O)N(C)[C@@H]([C@H](C)O)C(=O)N[C@@H](C)C(=O)N3C[C@@H](C)C[C@H]3C(=O)O[C@H]2C)cc1 [Compound 204, (S)-3-(3,5-difluorophenyl)-2-(3-(4-ethylphenyl)ureido)-N-((2S,6S,9S,11aS,17S,18S,20aS)-9-((S)-1-hydroxyethyl)-2,6,10,18-tetramethyl-5,8,11,16,20-pentaoxohexadecahydro-1H,5H,16H-dipyrrolo[2,1-c:2′,1′-l][1]oxa[4,7,10,13]tetraazacyclohexadecin-17-yl)propanamide] ({NH(4-Et-phenyl)-CO}-[Phe(3,5-F2)][aThr]P[NMeaThr]A[Pro(4S-Me)]; ester 2-C)	350 ± 10	
Cc1ccc(NC(=O)N[C@@H](Cc2cc(F)cc(F)c2)C(=O)N[C@@H]2C(=O)N3CCC[C@H]3C(=O)N3CCOC[C@H]3C(=O)N[C@@H](C)C(=O)N3C[C@H](C)C[C@H]3C(=O)O[C@H]2C)cc1 [Compound 210, (S)-3-(3,5-difluorophenyl)-2-(3-(p-tolyl)ureido)-N-((6aS,12S,13S,15aS,17R,21S,23aS)-13,17,21-trimethyl-6,11,15,20,23-pentaoxooctadecahydro-6H,11H,15H-[1,4]oxazino[3,4-i]dipyrrolo[2,1-c:2′,1′-l][1]oxa[4,7,10,13]tetraazacyclohexadecin-12-yl)propanamide] ({NH(4-Me-phenyl)-CO}-[Phe(3,5-F2)][aThr]P[Morpholine(3S-CO)]A[Pro(4R-Me)]; ester 2-C)	400 ± 10	
C[C@H]1C[C@H]2C(=O)O[C@@H](C)[C@H](NC(=O)[C@H](Cc3cc(F)cc(F)c3)NC(=O)Nc3ccc(OC(F)(F)F)cc3)C(=O)N3CCC[C@H]3C(=O)N3CCOC[C@H]3C(=O)N[C@@H](C)C(=O)N2C1 [Compound 201, (S)-3-(3,5-difluorophenyl)-2-(3-(4-(trifluoromethoxy)phenyl)ureido)-N-((6aS,12S,13S,15aS,17S,21S,23aS)-13,17,21-trimethyl-6,11,15,20,23-pentaoxooctadecahydro-6H,11H,15H-[1,4]oxazino[3,4-i]dipyrrolo[2,1-c:2′,1′-l][1]oxa[4,7,10,13]tetraazacyclohexadecin-12-yl)propanamide] ({NH(4-OCF3-phenyl)-CO}-[Phe(3,5-F2)][aThr]P[Morpholine(3S-CO)]A[Pro(4S-Me)]; ester 2-C)	330 ± 10	
Cc1cc(C)cc(NC(=O)N[C@@H](Cc2cc(F)cc(F)c2)C(=O)N[C@@H]2C(=O)N3CCC[C@H]3C(=O)N3CCCC[C@H]3C(=O)N[C@@H](C)C(=O)N3C[C@H](C)C[C@H]3C(=O)O[C@H]2C)c1 [Compound 304, (S)-3-(3,5-difluorophenyl)-2-(3-(3,5-dimethylphenyl)ureido)-N-((2R,6S,8aS,14aS,20S,21S,23aS)-2,6,21-trimethyl-5,8,14,19,23-pentaoxooctadecahydro-1H,5H,14H,19H-pyrido[2,1-i]dipyrrolo[2,1-c:2′,1′-l][1]oxa[4,7,10,13]tetraazacyclo-hexadecin-20-yl)propanamide] ({X6-CO}-[Phe(3,5-F2)][aThr]P[Pip]A[Pro(4R-Me)]; ester 2-C)		EC50 (Sa-ClpP [2]): 380 ± 10 nM
CCCC/C=C/C(=O)N[C@@H](Cc1cc(F)cc(F)c1)C(=O)N[C@@H]1C(=O)N2C[C@H](O)C[C@H]2C(=O)N2CCCC[C@H]2C(=O)N[C@@H](C)C(=O)N2C[C@H](C)C[C@H]2C(=O)O[C@H]1C [Compound 301, (E)-N—((S)-3-(3,5-difluorophenyl)-1-(((2R,6S,8aS,14aS,16R,20S,21S,23aS)-16-hydroxy-2,6,21-trimethyl-5,8,14,19,23-pentaoxooctadecahydro-1H,5H,14H,19H-pyrido[2,1-i]dipyrrolo[2,1-c:2′,1′-l][1]oxa[4,7,10,13]tetraazacyclohexadecin-20-yl)amino)-1-oxopropan-2-yl)hept-2-enamide] ({Heptenoyl(2E)}-[Phe(3,5-F2)][aThr][Hyp][Pip]A[Pro(4R-Me)]; ester 2-C)	420 ± 10	
